Legend:
[1] = tested on: DU145-PSMA+ prostate cancer cells (DU145 cells transfected to express PSMA receptor); assay: Radiotracer uptake in DU145-PSMA+ prostate cancer cells; type: cell-based; conditions: for cellular localization of radioactivity in DU145-PSMA+ cells over time: 15, 30, 60 and 120 min, surface-bound vs internalized fraction; for uptake in DU145-PSMA+ cells: 100 kBq radiotracer, 1 h incubation, percentage added radioactivity, mean ± SD, n = 3–4 biologic repeats in triplicate; for uptake in DU145-PSMA+ cells / uptake in DU145-PSMA+ cells with PMPA block: 37°C; for uptake in DU145-PSMA+ cells with PMPA block: coincubated with PSMA inhibitor PMPA, 1 h
Description: (§1) Solutions containing radiotracer (100 kBq in 8–12 μL of phosphate-buffered saline, >95% radiochemical purity) were added to DU145-PSMA+ or LNCaP prostate cancer cells ([22]), and the cells were incubated at 37°C for 1 h. Nonspecific uptake was determined using non–PSMA-expressing cells (DU145, PC3) or by blocking PSMA-expressing cells (DU145-PSMA+, LNCaP) with 2-phosphonomethyl pentanedioic acid (PMPA). After incubation, the cells were washed and samples collected for radioactivity counting. Uptake and localization of ^99mTc radiotracers were measured over time (15, 30, 60, and 120 min) in DU145-PSMA+ or LNCaP cells (supplemental materials).
(§2) To assess the specificity of the new radiotracers for PSMA, [^99mTc]Tc-DP1-PSMAt and [^99mTc]Tc-DP2-PSMAt (100 kBq) were each incubated with DU145-PSMA+ prostate cancer cells (DU145 cells transfected to express PSMA receptor) ([22]). After 1 h of incubation, uptake of each radiotracer was quantified. […] In LNCaP cells, uptake of [^99mTc]Tc-DP1-PSMAt and [^99mTc]Tc-DP2-PSMAt measured 3.7 ± 1.2 %AR and 3.0 ± 0.8 %AR, respectively, whereas uptake of both radiotracers in PC3 cells measured less than 0.3 %AR.
(§3) FIGURE 2. (A) Uptake of radiotracers in PSMA-positive and PSMA-negative prostate cancer cells. (B) Time course uptake and localization of ^99mTc radiotracers in DU145-PSMA cells and LNCaP cells. Data are presented as mean ± SD; n = 3–4 biologic repeats performed in triplicate.

DU145-PSMA+ tumors = assay: SPECT/CT imaging of mice bearing DU145-PSMA+ tumors; type: in vivo, SCID/beige mice; conditions: radiotracer only, 2 h and 24 h after injection
Description: (§4) All animal experiments were ethically reviewed by an Animal Welfare and Ethical Review Board at either King’s College London or Barts Cancer Institute and were performed in accordance with the Animals (Scientific Procedures) Act 1986 U.K. Home Office regulations governing animal experimentation. Subcutaneous prostate cancer DU145-PSMA+ or DU145 xenografts were produced in SCID/beige mice (male, 7–12 wk old). Subcutaneous LNCaP prostate cancer xenografts were produced in athymic nude mice (Crl:NU(NCr)-Foxn1^nu, male, 6–7 wk old). SPECT/CT and biodistribution studies using ^99mTc and ^188Re radiotracers were performed once a tumor had reached an appropriate size (supplemental materials).
FIGURE 3. (A) Biodistribution (2 h after injection) of SCID/beige mice bearing DU145-PSMA+ prostate cancer tumors, administered either ^99mTc or ^188Re radiotracers intravenously. To assess specificity of radiotracer uptake, additional groups of mice were also coadministered radiotracer and PMPA (Supplemental Tables 3 and 4). (B) Whole-body SPECT/CT maximum-intensity projections of SCID/beige mice bearing either DU145-PSMA+ tumors or DU145 tumors, administered either [^99mTc]Tc-DP1-PSMAt or [^99mTc]Tc-DP2-PSMAt, 2 h after injection. To inhibit uptake in DU145-PSMA+ tumors, animals were also coadministered PMPA. […]

[2] = tested on: parental DU145 cells that do not express PSMA; assay: Radiotracer uptake in parental DU145 cells (non-PSMA-expressing); type: cell-based; conditions: 100 kBq, 1 h, 37°C
Description: as §1, §2, §3

[3] = tested on: DU145-PSMA+ xenograft tumors; assay: Ex vivo biodistribution in SCID/beige mice bearing DU145-PSMA+ xenograft tumors; conditions: 2 h after injection; for effect of PMPA coadministration on kidney retention (in words): SCID/beige mice bearing DU145-PSMA+ tumors; for mean difference in spleen retention, radiotracer only vs with PMPA / mean difference in tumor uptake, radiotracer only vs with PMPA: SCID/beige mice; for mean difference in tumor uptake, radiotracer only vs with PMPA: DU145-PSMA+ tumors
Description: as §4
The biodistributions of [^99mTc]Tc-DP1-PSMAt and [^99mTc]Tc-DP2-PSMAt were assessed in male SCID/beige mice bearing DU145-PSMA+ xenograft tumors (Fig. 3). Each mouse was administered either [^99mTc]Tc-DP1-PSMAt or [^99mTc]Tc-DP2-PSMAt and euthanized at 2 h after injection (n = 5), followed by organ harvesting for ex vivo radioactivity counting.
FIGURE 3. (A) Biodistribution (2 h after injection) of SCID/beige mice bearing DU145-PSMA+ prostate cancer tumors, administered either ^99mTc or ^188Re radiotracers intravenously. To assess specificity of radiotracer uptake, additional groups of mice were also coadministered radiotracer and PMPA (Supplemental Tables 3 and 4). (B) Whole-body SPECT/CT maximum-intensity projections of SCID/beige mice bearing either DU145-PSMA+ tumors or DU145 tumors, administered either [^99mTc]Tc-DP1-PSMAt or [^99mTc]Tc-DP2-PSMAt, 2 h after injection. To inhibit uptake in DU145-PSMA+ tumors, animals were also coadministered PMPA.
To assess the specificity of each radiotracer, separate groups of animals, also bearing DU145-PSMA+ tumors, were coadministered either [^99mTc]Tc-DP1-PSMAt and PMPA or [^99mTc]Tc-DP2-PSMAt and PMPA to inhibit PSMA-mediated uptake of radiotracer (n = 5). […] For [^99mTc]Tc-DP1-PSMAt, coadministration decreased uptake to 0.91 ± 0.29 %ID/g in tumors (compared with administration of [^99mTc]Tc-DP1-PSMAt only: mean difference of 17.12 %ID/g, P = 4 × 10^−4). For [^99mTc]Tc-DP2-PSMAt, coadministration decreased uptake to 0.76 ± 0.45 %ID/g in tumors (compared with administration of [^99mTc]Tc-DP2-PSMAt only: mean difference of 28.62 %ID/g, P = 5 × 10^−4).

PC3 cells = assay: Radiotracer uptake in PC3 cells (non-PSMA-expressing); type: cell-based; conditions: 100 kBq, 1 h, 37°C; cells do not express PSMA
Description: as §1, §2, §3

[4] = tested on: LNCaP prostate cancer cells, which natively express PSMA; assay: Radiotracer uptake in LNCaP prostate cancer cells; type: cell-based; conditions: for cellular localization of radioactivity in LNCaP cells over time: 15, 30, 60 and 120 min, surface-bound vs internalized fraction; for uptake in LNCaP cells: 100 kBq radiotracer, 1 h incubation, percentage added radioactivity, mean ± SD, n = 3–4 biologic repeats in triplicate; for uptake in LNCaP cells / uptake in LNCaP cells with PMPA block: 37°C; for uptake in LNCaP cells with PMPA block: blocked with PMPA, 1 h
Description: as §1, §2, §3

Structure (SMILES)	cellular localization of radioactivity in DU145-PSMA+ cells over time [1]	uptake in DU145-PSMA+ cells [1]	uptake in DU145-PSMA+ cells with PMPA block [1]	tumor delineation in SPECT/CT scans (DU145-PSMA+ tumors)	uptake in parental DU145 cells [2]	effect of PMPA coadministration on kidney retention (in words) [3]	mean difference in spleen retention, radiotracer only vs with PMPA [3]	mean difference in tumor uptake, radiotracer only vs with PMPA [3]	uptake in PC3 cells (PC3 cells)	cellular localization of radioactivity in LNCaP cells over time [4]	uptake in LNCaP cells [4]	uptake in LNCaP cells with PMPA block [4]
O=C(O)CC[C@H](NC(=O)N[C@@H](CCCCNC(=O)CCOCCOCCOCCOCCNC(=O)/C(=C(\C(=O)O)P(c1ccccc1)c1ccccc1)P(c1ccccc1)c1ccccc1)C(=O)O)C(=O)O [[^99mTc]Tc-DP1-PSMAt] [metal not drawn]	most cell-associated radioactivity was found in the internalized cell fraction	12.4 ± 2.8 %AR	could be blocked with PMPA	tumors could be clearly delineated	negligible uptake	significantly decreased	11.8 %ID/g	17.12 %ID/g	less than 0.3 %AR	most cell-associated radioactivity was found in the internalized cell fraction	3.7 ± 1.2 %AR	could also be blocked with PMPA
Cc1ccc(P(/C(C(=O)O)=C(/C(=O)NCCOCCOCCOCCOCCC(=O)NCCCC[C@H](NC(=O)N[C@@H](CCC(=O)O)C(=O)O)C(=O)O)P(c2ccc(C)cc2)c2ccc(C)cc2)c2ccc(C)cc2)cc1 [[^99mTc]Tc-DP2-PSMAt] [metal not drawn]	most cell-associated radioactivity was found in the internalized cell fraction	7.8 ± 1.3 %AR	could be blocked with PMPA	tumors could be clearly delineated	negligible uptake	much less pronounced	7.4 %ID/g	28.62 %ID/g	less than 0.3 %AR	most cell-associated radioactivity was found in the internalized cell fraction	3.0 ± 0.8 %AR	could also be blocked with PMPA

From publication PMC11218721, “Receptor-Targeted Peptide Conjugates Based on Diphosphines Enable Preparation of ^99mTc and ^188Re Theranostic Agents for Prostate Cancer” (Journal of Nuclear Medicine, 2024)
